Laboratory results taken from US20180186742A1, “PICOLINAMIDES AS FUNGICIDES” (Dow AgroSciences LLC, priority 2017, published 2018).
Like-named read-outs stand apart in the source and are kept apart here.

Experiments:
Zymoseptoria tritici = assay: Leaf blotch of wheat (SEPTTR), disease control on wheat seedlings; assay type: in vivo; details: low volume application at 121.5 g/H
Description: Technical grades of materials were dissolved in acetone, which were then mixed with nine volumes of water containing 110 ppm Triton X-100. The fungicide solutions were applied onto wheat seedlings using an automated booth sprayer to run-off. All sprayed plants were allowed to air dry prior to further handling. All fungicides were evaluated using the aforementioned method for their activity vs. all target diseases, unless stated otherwise. Wheat leaf blotch and brown rust activity were also evaluated using track spray applications, in which case the fungicides were formulated as EC formulations, containing 0.1% Trycol 5941 in the spray solutions. Wheat plants (variety Yuma) were grown from seed in a greenhouse in 50% mineral soil/50% soil-less Metro mix until the first leaf was fully emerged, with 7-10 seedlings per pot. These plants were inoculated with an aqueous spore suspension of Zymoseptoria tritici either prior to or after fungicide treatments. After inoculation the plants were kept in 100% relative humidity (one day in a dark dew chamber followed by two to three days in a lighted dew chamber at 20° C.) to permit spores to germinate and infect the leaf. The plants were then transferred to a greenhouse set at 20° C. for disease to develop. When disease symptoms were fully expressed on the 1st leaves of untreated plants, infection levels were assessed on a scale of 0 to 100 percent disease severity. Percent disease control was calculated using the ratio of disease severity on treated plants relative to untreated plants.

Puccinia triticina = assay: Wheat brown rust (PUCCRT), disease control on wheat seedlings; assay type: in vivo; details: low volume application at 121.5 g/H
Description: Technical grades of materials were dissolved in acetone, which were then mixed with nine volumes of water containing 110 ppm Triton X-100. The fungicide solutions were applied onto wheat seedlings using an automated booth sprayer to run-off. All sprayed plants were allowed to air dry prior to further handling. All fungicides were evaluated using the aforementioned method for their activity vs. all target diseases, unless stated otherwise. Wheat leaf blotch and brown rust activity were also evaluated using track spray applications, in which case the fungicides were formulated as EC formulations, containing 0.1% Trycol 5941 in the spray solutions. Wheat plants (variety Yuma) were grown from seed in a greenhouse in 50% mineral soil/50% soil-less Metro mix until the first leaf was fully emerged, with 7-10 seedlings per pot. These plants were inoculated with an aqueous spore suspension of Puccinia triticina either prior to or after fungicide treatments. After inoculation the plants were kept in a dark dew room at 22° C. with 100% relative humidity overnight to permit spores to germinate and infect the leaf. The plants were then transferred to a greenhouse set at 24° C. for disease to develop. Fungicide formulation, application and disease assessment followed the procedures as described in the Example A.

[1] = 24 h, 1 Day Protectant, read-out: SEPTTR disease control, 1DP, LV activity
[2] = 24 h, 1 Day Protectant, read-out: PUCCRT disease control, 1DP, LV activity
[3] = 72 h, 3 Day Curative, read-out: PUCCRT disease control, 3DC, LV activity
[4] = 72 h, 3 Day Curative, read-out: SEPTTR disease control, 3DC, LV activity

**Q.** `COCCC(=O)Oc1c(OC)ccnc1C(=O)N[C@@H](C)C(=O)O[C@@H](C)[C@H](c1ccc(C)cc1OC)C(C)C` [Compound 249] was tested. Which pest or weed control at 121.5 g/ha (Zymoseptoria tritici; [1]) did it give?
**A.** < 80%

**Q.** And the pest or weed control at 121.5 g/ha (Puccinia triticina; [2])?
**A.** > 80%

**Q.** What about the pest or weed control at 121.5 g/ha (Puccinia triticina; [3]) of the same molecule?
**A.** > 80%

**Q.** What does the source list for `COc1ccnc(C(=O)N[C@@H](C)C(=O)O[C@@H](C)[C@H](c2ccc(F)c(C)c2)C(C)C)c1OC(C)=O` [Compound 250]?
**A.** pest or weed control at 121.5 g/ha (Zymoseptoria tritici; [1]): > 80%; pest or weed control at 121.5 g/ha (Puccinia triticina; [2]): > 80%; pest or weed control at 121.5 g/ha (Puccinia triticina; [3]): > 80%

**Q.** How did the pest or weed control at 121.5 g/ha (Zymoseptoria tritici; [1]) turn out when `COc1ccc([C@H](C(C)C)[C@H](C)OC(=O)[C@H](C)NC(=O)c2nccc(OC)c2OC(C)=O)c(F)c1` [Compound 251] was run?
**A.** < 80%

**Q.** And the pest or weed control at 121.5 g/ha (Puccinia triticina; [2])?
**A.** > 80%

**Q.** And the pest or weed control at 121.5 g/ha (Puccinia triticina; [3])?
**A.** > 80%

**Q.** How did the pest or weed control at 121.5 g/ha (Zymoseptoria tritici; [1]) turn out when `COc1ccc([C@H](C(C)C)[C@H](C)OC(=O)[C@H](C)NC(=O)c2nccc(OC)c2OC(C)=O)cc1F` [Compound 252] was run?
**A.** < 80%

**Q.** And the pest or weed control at 121.5 g/ha (Puccinia triticina; [2])?
**A.** > 80%

**Q.** What about the pest or weed control at 121.5 g/ha (Puccinia triticina; [3]) of the same molecule?
**A.** < 80%

**Q.** Which results are given for `COc1cc(C)ccc1[C@H](C(C)C)[C@H](C)OC(=O)[C@H](C)NC(=O)c1nccc(OC)c1OC(C)=O` [Compound 253]?
**A.** pest or weed control at 121.5 g/ha (Zymoseptoria tritici; [1]): < 80%; pest or weed control at 121.5 g/ha (Puccinia triticina; [2]): > 80%; pest or weed control at 121.5 g/ha (Puccinia triticina; [3]): > 80%

**Q.** For `COc1ccc([C@H](C(C)C)[C@H](C)OC(=O)[C@H](C)NC(=O)c2nccc(OC)c2OC(C)=O)c(C)c1` [Compound 254], which pest or weed control at 121.5 g/ha (Zymoseptoria tritici; [1]) is on record?
**A.** > 80%

**Q.** What about the pest or weed control at 121.5 g/ha (Puccinia triticina; [2]) of the same molecule?
**A.** > 80%

**Q.** And the pest or weed control at 121.5 g/ha (Puccinia triticina; [3])?
**A.** > 80%

**Q.** Which results are given for `COc1ccnc(C(=O)N[C@@H](C)C(=O)O[C@@H](C)[C@H](c2ccc(C)cc2)C(C)C)c1OCOC(C)=O` [Compound 255]?
**A.** pest or weed control at 121.5 g/ha (Zymoseptoria tritici; [1]): < 80%; pest or weed control at 121.5 g/ha (Puccinia triticina; [2]): > 80%; pest or weed control at 121.5 g/ha (Puccinia triticina; [3]): > 80%

**Q.** `COc1ccnc(C(=O)N[C@@H](C)C(=O)O[C@@H](C)[C@H](c2ccc(F)c(C)c2)C(C)C)c1OCOC(C)=O` [Compound 256] was tested. Which pest or weed control at 121.5 g/ha (Zymoseptoria tritici; [1]) did it give?
**A.** > 80%

**Q.** And the pest or weed control at 121.5 g/ha (Puccinia triticina; [2])?
**A.** > 80%

**Q.** What about the pest or weed control at 121.5 g/ha (Puccinia triticina; [3]) of the same molecule?
**A.** > 80%

**Q.** What does the source list for `COc1ccc([C@H](C(C)C)[C@H](C)OC(=O)[C@H](C)NC(=O)c2nccc(OC)c2OCOC(C)=O)c(F)c1` [Compound 257]?
**A.** pest or weed control at 121.5 g/ha (Zymoseptoria tritici; [1]): > 80%; pest or weed control at 121.5 g/ha (Puccinia triticina; [2]): > 80%; pest or weed control at 121.5 g/ha (Puccinia triticina; [3]): > 80%

**Q.** How did the pest or weed control at 121.5 g/ha (Zymoseptoria tritici; [1]) turn out when `COc1ccc([C@H](C(C)C)[C@H](C)OC(=O)[C@H](C)NC(=O)c2nccc(OC)c2OCOC(C)=O)cc1F` [Compound 258] was run?
**A.** < 80%

**Q.** And the pest or weed control at 121.5 g/ha (Puccinia triticina; [2])?
**A.** > 80%

**Q.** What about the pest or weed control at 121.5 g/ha (Puccinia triticina; [3]) of the same molecule?
**A.** < 80%

**Q.** Which results are given for `COc1cc(C)ccc1[C@H](C(C)C)[C@H](C)OC(=O)[C@H](C)NC(=O)c1nccc(OC)c1OCOC(C)=O` [Compound 259]?
**A.** pest or weed control at 121.5 g/ha (Zymoseptoria tritici; [1]): < 80%; pest or weed control at 121.5 g/ha (Puccinia triticina; [2]): > 80%; pest or weed control at 121.5 g/ha (Puccinia triticina; [3]): > 80%

**Q.** What does the source list for `COc1ccc([C@H](C(C)C)[C@H](C)OC(=O)[C@H](C)NC(=O)c2nccc(OC)c2OCOC(C)=O)c(C)c1` [Compound 260]?
**A.** pest or weed control at 121.5 g/ha (Zymoseptoria tritici; [1]): > 80%; pest or weed control at 121.5 g/ha (Puccinia triticina; [2]): > 80%; pest or weed control at 121.5 g/ha (Puccinia triticina; [3]): > 80%

**Q.** With `COc1ccccc1[C@H](C(C)C)[C@H](C)OC(=O)[C@H](C)NC(=O)c1nccc(OC)c1OC(C)=O` [Compound 261] as the molecule, how does the pest or weed control at 121.5 g/ha (Zymoseptoria tritici; [1]) read?
**A.** < 80%

**Q.** What about the pest or weed control at 121.5 g/ha (Zymoseptoria tritici; [4]) of the same molecule?
**A.** < 80%

**Q.** What about the pest or weed control at 121.5 g/ha (Puccinia triticina; [2]) of the same molecule?
**A.** > 80%

**Q.** What about the pest or weed control at 121.5 g/ha (Puccinia triticina; [3]) of the same molecule?
**A.** < 80%

**Q.** With `COc1ccc([C@H](C(C)C)[C@H](C)OC(=O)[C@H](C)NC(=O)c2nccc(OC)c2OC(C)=O)c(OC)c1` [Compound 262] as the molecule, how does the pest or weed control at 121.5 g/ha (Zymoseptoria tritici; [1]) read?
**A.** < 80%

**Q.** What about the pest or weed control at 121.5 g/ha (Zymoseptoria tritici; [4]) of the same molecule?
**A.** < 80%

**Q.** And the pest or weed control at 121.5 g/ha (Puccinia triticina; [2])?
**A.** > 80%

**Q.** And the pest or weed control at 121.5 g/ha (Puccinia triticina; [3])?
**A.** < 80%

**Q.** Which results are given for `COc1ccccc1[C@H](C(C)C)[C@H](C)OC(=O)[C@H](C)NC(=O)c1nccc(OC)c1OCOC(C)=O` [Compound 263]?
**A.** pest or weed control at 121.5 g/ha (Zymoseptoria tritici; [1]): < 80%; pest or weed control at 121.5 g/ha (Zymoseptoria tritici; [4]): > 80%; pest or weed control at 121.5 g/ha (Puccinia triticina; [2]): > 80%; pest or weed control at 121.5 g/ha (Puccinia triticina; [3]): > 80%
